Measurements: ChEMBL document CHEMBL3217449 (Medchemcomm, 2010)
Converted amounts (≈) assume the structure as drawn.

Legend:
[1] = Inhibition of AKT phosphorylation at S473 in human SKOV3 cells after 1 hr by sandwich ELISA; format: cell-based; conditions: SK-OV-3, 1 h
[2] = system: Rattus norvegicus; assay: Unbound clearance in rat at 2 mg/kg, iv and 5 mg/kg, po by LC-MS/MS analysis; format: ADME, organism-based; conditions: in vivo
[3] = Kinetic solubility of the compound; format: physicochemical; conditions: read-out: Kinetic_solubility
[4] = Clearance in rat at 2 mg/kg, iv and 5 mg/kg, po by LC-MS/MS analysis; format: ADME, organism-based; conditions: in vivo
[5] = Unbound fraction in rat plasma at 2 mg/kg, iv and 5 mg/kg, po by LC-MS/MS analysis; format: ADME, organism-based
[6] = Inhibition of AKT phosphorylation at S473 in human BT20 cells after 1 hr by sandwich ELISA; format: cell-based; conditions: BT-20, 1 h
[7] = Half life in rat at 2 mg/kg, iv and 5 mg/kg, po by LC-MS/MS analysis; format: ADME, organism-based; conditions: in vivo
[8] = Volume of distribution at steady state in rat at 2 mg/kg, iv and 5 mg/kg, po by LC-MS/MS analysis; format: ADME, organism-based; conditions: in vivo, read-out: Vdss
[9] = Metabolic stability in human liver microsomes assessed as extraction ratio; format: ADME; conditions: read-out: ERH
[10] = molecular target: Serine/threonine-protein kinase mTOR (Homo sapiens, UniProt P42345)
[11] = molecular target: Phosphatidylinositol 4,5-bisphosphate 3-kinase catalytic subunit alpha isoform (Mus musculus, UniProt P42337); assay: Inhibition of mouse PI3K alpha expressed in insect cells coexpressing p85 subunit assessed as PI(3,4,5)P3 formation using PI(4,5)P2 as substrate by measuring displacement of TAMRA-labeled PI(3,4,5)P3 from Grip1 PH domain after 35 mins by ligand displacement fluorescence polarization assay
[12] = system: Mus musculus; assay: Drug metabolism in po dosed mouse plasma assessed as 2-amino-8-((cis)-4-hydroxycyclohexyl)-6-(6-methoxypyridin-3-yl)-4-methylpyrido[2,3-d]pyrimidin-7(8H)-one level; format: ADME, organism-based; conditions: in vivo
[13] = system: Rattus norvegicus; assay: Drug metabolism in iv dosed rat plasma assessed as 2-amino-8-((cis)-4-hydroxycyclohexyl)-6-(6-methoxypyridin-3-yl)-4-methylpyrido[2,3-d]pyrimidin-7(8H)-one level; format: ADME, organism-based; conditions: in vivo
[14] = Drug absorption in rat; format: ADME, organism-based; conditions: in vivo, read-out: Drug absorption
[15] = system: Rattus norvegicus; assay: Drug metabolism in iv dosed rat plasma assessed as 2-amino-8-((trans)-4-hydroxycyclohexyl)-6-(6-methoxypyridin-3-yl)-4-methylpyrido[2,3-d]pyrimidin-7(8H)-one level; format: ADME, organism-based; conditions: in vivo
[16] = system: Mus musculus; assay: Drug metabolism in po dosed mouse plasma assessed as 2-amino-8-((trans)-4-hydroxycyclohexyl)-6-(6-methoxypyridin-3-yl)-4-methylpyrido[2,3-d]pyrimidin-7(8H)-one level; format: ADME, organism-based; conditions: in vivo

Chain of Phosphatidylinositol 4,5-bisphosphate 3-kinase catalytic subunit alpha isoform (P42337 whole entry, the tested form may be a part, canonical isoform): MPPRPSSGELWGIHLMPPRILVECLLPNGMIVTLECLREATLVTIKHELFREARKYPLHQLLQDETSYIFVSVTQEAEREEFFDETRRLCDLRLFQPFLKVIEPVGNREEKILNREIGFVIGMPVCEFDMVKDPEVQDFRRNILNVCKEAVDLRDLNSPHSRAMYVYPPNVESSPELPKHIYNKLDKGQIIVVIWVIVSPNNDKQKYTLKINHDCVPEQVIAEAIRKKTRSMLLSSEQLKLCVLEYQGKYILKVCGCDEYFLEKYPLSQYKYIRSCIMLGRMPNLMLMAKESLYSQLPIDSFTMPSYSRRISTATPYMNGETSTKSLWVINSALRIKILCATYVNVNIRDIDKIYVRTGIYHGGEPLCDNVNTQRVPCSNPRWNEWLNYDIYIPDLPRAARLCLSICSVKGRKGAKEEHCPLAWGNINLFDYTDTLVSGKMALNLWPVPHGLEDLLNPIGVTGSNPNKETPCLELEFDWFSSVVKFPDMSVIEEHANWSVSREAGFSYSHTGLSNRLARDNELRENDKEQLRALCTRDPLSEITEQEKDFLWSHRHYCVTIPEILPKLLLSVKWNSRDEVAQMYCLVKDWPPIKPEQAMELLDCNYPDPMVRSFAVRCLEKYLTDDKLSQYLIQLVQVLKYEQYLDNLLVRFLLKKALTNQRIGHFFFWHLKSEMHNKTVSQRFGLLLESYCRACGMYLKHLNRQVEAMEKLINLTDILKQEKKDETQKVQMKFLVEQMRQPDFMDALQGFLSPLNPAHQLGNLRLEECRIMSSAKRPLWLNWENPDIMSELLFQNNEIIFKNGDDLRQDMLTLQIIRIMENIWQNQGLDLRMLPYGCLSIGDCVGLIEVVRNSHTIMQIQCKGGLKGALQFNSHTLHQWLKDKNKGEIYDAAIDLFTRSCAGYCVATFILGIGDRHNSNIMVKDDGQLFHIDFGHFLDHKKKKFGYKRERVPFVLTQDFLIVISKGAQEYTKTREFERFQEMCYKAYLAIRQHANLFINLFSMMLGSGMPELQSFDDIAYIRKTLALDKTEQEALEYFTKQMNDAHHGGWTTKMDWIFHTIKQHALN

Compound	solubility kinetic [3] [µM]	IC50 [6] [µM]	hepatic extraction ratio [9]	Ki [10] [µM]	Ki [11] [µM]	also measured
COc1ccc(-c2cc3c(C)nc(N)nc3n([C@H]3CC[C@H](OCCO)CC3)c2=O)cn1 [PF-04691502]	14 (≈ 5.96 µg/mL)	0.013				IC50 [1]: 0.0074 µM; CL free [2]: 25.9 mL/min/kg; clearance [4]: 5.2 mL/min/kg; fraction unbound [5]: 0.202; half-life [7]: 3.1 h; Vd [8]: 1.39 L/kg
COc1ccc(-c2cc3c(C)nc(N)nc3n(C3CCOCC3)c2=O)cn1	40 (≈ 14.7 µg/mL)		< 0.26	0.11	0.0036	
COc1ccc(-c2cc3c(C)nc(N)nc3n([C@H]3CC[C@H](O)CC3)c2=O)cn1	16 (≈ 6.1 µg/mL)	0.012	< 0.25	0.017	0.0009	Stability [12]: Unstable; Stability [13]: Unstable
COc1ccc(-c2cc3c(C)nc(N)nc3n(C3CCCC3)c2=O)cn1	3.9 (≈ 1.37 µg/mL)	0.016	< 0.25	0.2	0.0014	Fa [14]: 28%
COc1ccc(-c2cc3c(C)nc(N)nc3n(C3CCOC3)c2=O)cn1 (stereo not given)	144 (≈ 50.9 µg/mL)		< 0.26	0.15	0.0066	

Continued by falling Ki [10], values first:

solubility kinetic [3] [µM]	IC50 [6] [µM]	hepatic extraction ratio [9]	Ki [10] [µM]	Ki [11] [µM]	Compound	also measured
65 (≈ 23.7 µg/mL)	0.015	0.68	0.84	0.0014	CNc1nc(C)c2cc(-c3cccc(CO)c3)c(=O)n(C3CCCC3)c2n1	
			0.7	0.0011	CNc1nc(C)c2cc(-c3ccc(OC)nc3)c(=O)n(C3CCCC3)c2n1	
60 (≈ 22.9 µg/mL)	0.022	< 0.26	0.09	0.003	COc1ccc(-c2cc3c(C)nc(N)nc3n([C@H]3CC[C@@H](O)CC3)c2=O)cn1	Stability [15]: Unstable; Stability [16]: Unstable
			0.082	0.0012	Cc1nc(N)nc2c1cc(-c1cccc(CO)c1)c(=O)n2C1CCCC1	
